Organism: Rattus norvegicus
Assay: DrugMatrix - Regimen: Daily Repeat
Format: toxicity, organism-based, Sprague-Dawley
Design: regimen Daily Repeat, gender Male, age 6-8 weeks
Settings: in vivo, po, route oral GAVAGE, vehicle .5 % CMC; for ABSOLUTE BASOPHIL / ABSOLUTE EOSINOPHIL / ABSOLUTE LYMPHOCYTE / ABSOLUTE MONOCYTE / ABSOLUTE SEGMENTED NEUTROPHIL / BASOPHIL / EOSINOPHIL / ERYTHROCYTE COUNT / HEMATOCRIT / HEMOGLOBIN / LEUKOCYTE COUNT / LYMPHOCYTE / MEAN CORPUSCULAR HEMOGLOBIN / MEAN CORPUSCULAR HEMOGLOBIN CONCENTRATION / MEAN CORPUSCULAR VOLUME / MONOCYTE / NEUTROPHIL / NUCLEATED RED BLOOD CELLS / PLATELET COUNT: tissue Blood; for ALANINE AMINOTRANSFERASE / ALBUMIN / ALKALINE PHOSPHATASE / ASPARTATE AMINOTRANSFERASE / BLOOD UREA NITROGEN / CARBON DIOXIDE / CHLORIDE / CHOLESTEROL / CREATINE PHOSPHOKINASE / CREATININE / GLUCOSE / LACTATE DEHYDROGENASE / LIPASE / PHOSPHORUS / POTASSIUM / SODIUM / TOTAL BILIRUBIN / TOTAL PROTEIN / URIC ACID: tissue Plasma
[1] = 200 mg/kg, 120 h, dose level Low, time 5 day
[2] = 2500 mg/kg, 72 h, dose level High, time 3 day
[3] = 2500 mg/kg, 120 h, dose level High, time 5 day

In the case of `CCC1=C(C)CN(C(=O)NCCc2ccc(S(=O)(=O)NC(=O)N[C@H]3CC[C@H](C)CC3)cc2)C1=O` [GLIMEPIRIDE], the “ABSOLUTE BASOPHIL” value [1] is reported as 0 CELLS/uL, the “ABSOLUTE EOSINOPHIL” value [1] is reported as 0 CELLS/uL and the “ABSOLUTE LYMPHOCYTE” value [1] is reported as 12890.33 CELLS/uL. For the same compound, the “ABSOLUTE MONOCYTE” value [1] was 43.33 CELLS/uL, the “ABSOLUTE SEGMENTED NEUTROPHIL” value [1] was 866.33 CELLS/uL and the BASOPHIL [1] was 0%. For the same compound, the EOSINOPHIL [1] was 0%, the “ERYTHROCYTE COUNT” value [1] was 5.84 x10E6/uL and the HEMATOCRIT [1] was 36.5%. For the same compound, the HEMOGLOBIN [1] was 14.63 G/DL, the “LEUKOCYTE COUNT” value [1] was 13.8 x10E3/uL and the LYMPHOCYTE [1] was 93.33%. For the same compound, the “MEAN CORPUSCULAR HEMOGLOBIN” value [1] was 25.03 pg, the “MEAN CORPUSCULAR HEMOGLOBIN CONCENTRATION” value [1] was 40.1 G/DL and the “MEAN CORPUSCULAR VOLUME” value [1] was 62.43 fL. For the same compound, the MONOCYTE [1] was 0.33%, the NEUTROPHIL [1] was 6.33% and the “NUCLEATED RED BLOOD CELLS” value [1] was 0 /100WBC. For the same compound, the “PLATELET COUNT” value [1] was 1124.67 x10E3/uL, the “ALANINE AMINOTRANSFERASE” value [1] was 58.33 u/L and the ALBUMIN [1] was 4.43 G/DL. For the same compound, the “ALKALINE PHOSPHATASE” value [1] was 402 u/L, the “ASPARTATE AMINOTRANSFERASE” value [1] was 81.33 u/L and the “BLOOD UREA NITROGEN” value [1] was 15.67 mg/dL. The “CARBON DIOXIDE” value [1] was 31.67 mmol/L, the CHLORIDE [1] was 101.33 MEQ/L and the CHOLESTEROL [1] was 75 mg/dL. For the same compound, the “CREATINE PHOSPHOKINASE” value [1] was 241.33 u/L, the CREATININE [1] was 0.18 mg/dL and the GLUCOSE [1] was 154 mg/dL. For the same compound, the “LACTATE DEHYDROGENASE” value [1] was 123.67 u/L, the LIPASE [1] was 10 u/L and the PHOSPHORUS [1] was 10.53 mg/dL. For the same compound, the POTASSIUM [1] was 6.31 MEQ/L, the SODIUM [1] was 143.8 MEQ/L and the “TOTAL BILIRUBIN” value [1] was 0.2 mg/dL. The “TOTAL PROTEIN” value [1] was 6.23 G/DL, the “URIC ACID” value [1] was 1.13 mg/dL and the “ABSOLUTE BASOPHIL” value [2] was 0 CELLS/uL. The “ABSOLUTE EOSINOPHIL” value [2] was 0 CELLS/uL, the “ABSOLUTE LYMPHOCYTE” value [2] was 11733.33 CELLS/uL and the “ABSOLUTE MONOCYTE” value [2] was 88 CELLS/uL. The “ABSOLUTE SEGMENTED NEUTROPHIL” value [2] was 778.67 CELLS/uL, the BASOPHIL [2] was 0% and the EOSINOPHIL [2] was 0%. For the same compound, the “ERYTHROCYTE COUNT” value [2] was 5.59 x10E6/uL, the HEMATOCRIT [2] was 36.03% and the HEMOGLOBIN [2] was 14.23 G/DL. The “LEUKOCYTE COUNT” value [2] was 12.6 x10E3/uL, the LYMPHOCYTE [2] was 92.67% and the “MEAN CORPUSCULAR HEMOGLOBIN” value [2] was 25.47 pg. The “MEAN CORPUSCULAR HEMOGLOBIN CONCENTRATION” value [2] was 39.6 G/DL, the “MEAN CORPUSCULAR VOLUME” value [2] was 64.33 fL and the MONOCYTE [2] was 0.67%. The NEUTROPHIL [2] was 6.67%, the “NUCLEATED RED BLOOD CELLS” value [2] was 0.33 /100WBC and the “PLATELET COUNT” value [2] was 1148 x10E3/uL. For the same compound, the “ALANINE AMINOTRANSFERASE” value [2] was 60.33 u/L, the ALBUMIN [2] was 4.2 G/DL and the “ALKALINE PHOSPHATASE” value [2] was 398.33 u/L. The “ASPARTATE AMINOTRANSFERASE” value [2] was 110 u/L, the “BLOOD UREA NITROGEN” value [2] was 16.67 mg/dL and the “CARBON DIOXIDE” value [2] was 28 mmol/L. The CHLORIDE [2] was 102.67 MEQ/L, the CHOLESTEROL [2] was 61 mg/dL and the “CREATINE PHOSPHOKINASE” value [2] was 802 u/L. The CREATININE [2] was 0.14 mg/dL, the GLUCOSE [2] was 165.67 mg/dL and the “LACTATE DEHYDROGENASE” value [2] was 190 u/L. The LIPASE [2] was 10.33 u/L, the PHOSPHORUS [2] was 10.87 mg/dL and the POTASSIUM [2] was 5.99 MEQ/L. For the same compound, the SODIUM [2] was 143.87 MEQ/L, the “TOTAL BILIRUBIN” value [2] was 0.1 mg/dL and the “TOTAL PROTEIN” value [2] was 5.73 G/DL. The “URIC ACID” value [2] was 1.47 mg/dL, the “ABSOLUTE BASOPHIL” value [3] was 0 CELLS/uL and the “ABSOLUTE EOSINOPHIL” value [3] was 80.67 CELLS/uL. The “ABSOLUTE LYMPHOCYTE” value [3] was 11006.67 CELLS/uL, the “ABSOLUTE MONOCYTE” value [3] was 128 CELLS/uL and the “ABSOLUTE SEGMENTED NEUTROPHIL” value [3] was 1118 CELLS/uL. For the same compound, the BASOPHIL [3] was 0%, the EOSINOPHIL [3] was 0.67% and the “ERYTHROCYTE COUNT” value [3] was 5.89 x10E6/uL. The HEMATOCRIT [3] was 36.97%, the HEMOGLOBIN [3] was 14.8 G/DL and the “LEUKOCYTE COUNT” value [3] was 12.33 x10E3/uL. For the same compound, the LYMPHOCYTE [3] was 89.33%, the “MEAN CORPUSCULAR HEMOGLOBIN” value [3] was 25.13 pg and the “MEAN CORPUSCULAR HEMOGLOBIN CONCENTRATION” value [3] was 40.07 G/DL. For the same compound, the “MEAN CORPUSCULAR VOLUME” value [3] was 62.73 fL, the MONOCYTE [3] was 1% and the NEUTROPHIL [3] was 9%. For the same compound, the “NUCLEATED RED BLOOD CELLS” value [3] was 0 /100WBC, the “PLATELET COUNT” value [3] was 1082.67 x10E3/uL and the “ALANINE AMINOTRANSFERASE” value [3] was 74 u/L. For the same compound, the ALBUMIN [3] was 4.47 G/DL, the “ALKALINE PHOSPHATASE” value [3] was 390 u/L and the “ASPARTATE AMINOTRANSFERASE” value [3] was 96.33 u/L. For the same compound, the “BLOOD UREA NITROGEN” value [3] was 19 mg/dL, the “CARBON DIOXIDE” value [3] was 28.67 mmol/L and the CHLORIDE [3] was 101.33 MEQ/L. The CHOLESTEROL [3] was 72 mg/dL, the “CREATINE PHOSPHOKINASE” value [3] was 380.67 u/L and the CREATININE [3] was 0.18 mg/dL. The GLUCOSE [3] was 132.33 mg/dL, the “LACTATE DEHYDROGENASE” value [3] was 150.33 u/L and the LIPASE [3] was 8 u/L. The PHOSPHORUS [3] was 11.9 mg/dL, the POTASSIUM [3] was 5.72 MEQ/L and the SODIUM [3] was 145.67 MEQ/L. For the same compound, the “TOTAL BILIRUBIN” value [3] was 0.23 mg/dL, the “TOTAL PROTEIN” value [3] was 6.3 G/DL and the “URIC ACID” value [3] was 1.5 mg/dL.

— ChEMBL document CHEMBL3885881, “DrugMatrix”
